Measured values: publication PMC10515483, “Structure–Reactivity Studies of 2-Sulfonylpyrimidines Allow Selective Protein Arylation” (Bioconjugate Chemistry, 2023)

Assays:
[1] = Hydrolytic stability in KPi buffer without thiol (NMR); type: physicochemical; conditions: for % degradation: over 12 hours, 50 mM KPi, footnote a: crashing out of solution, no degradation product; for hydrolysis in aqueous buffer (in words): buffer in the absence of GSH
Experimental: NMR studies: rate constant determination and hydrolytic stability. 850 µL of 50 mM Kpi buffer solution (pH 8.2 or 7), 20 µL of the appropriate pyrimidine stock s olution (100 mM in DMSO -d6), 20 µL of TMSP stock solution (22.2 mM in DI water), 30 µL DMSO -d6, and 80 µL of GSH stock solution (0.25 M in DI water, reactivity only) were successively added/mixed at room temperature, final pH 7.0 or 6.5 (Table S1). 600 µL of this freshly prepared solution was poured into an NMR tube and immediately […]
transferred to the NMR instrument for acquisition. 1H spectra (16 scans) were recorded every 10 minutes under water suppression conditions. Following acquisition, spectra were analysed using […]
order reaction rate constants (k’).

β-catenin ARD = target: T1, β-catenin ARD (Homo sapiens, UniProt P35222); experiment: Differential scanning fluorimetry (DSF); type: binding; conditions: 100 μM compound; 8 µM β-cat; read-out: Protein thermal stability ΔTm
T1 construct: vector pLipK-ARD (residues 150 – 662) was used; 6xHis-Lip (6xHis, lipoyl domain); made in house; host or cells: E. coli BL21(DE3) pRARE2
T1 sequence (P35222 150-662): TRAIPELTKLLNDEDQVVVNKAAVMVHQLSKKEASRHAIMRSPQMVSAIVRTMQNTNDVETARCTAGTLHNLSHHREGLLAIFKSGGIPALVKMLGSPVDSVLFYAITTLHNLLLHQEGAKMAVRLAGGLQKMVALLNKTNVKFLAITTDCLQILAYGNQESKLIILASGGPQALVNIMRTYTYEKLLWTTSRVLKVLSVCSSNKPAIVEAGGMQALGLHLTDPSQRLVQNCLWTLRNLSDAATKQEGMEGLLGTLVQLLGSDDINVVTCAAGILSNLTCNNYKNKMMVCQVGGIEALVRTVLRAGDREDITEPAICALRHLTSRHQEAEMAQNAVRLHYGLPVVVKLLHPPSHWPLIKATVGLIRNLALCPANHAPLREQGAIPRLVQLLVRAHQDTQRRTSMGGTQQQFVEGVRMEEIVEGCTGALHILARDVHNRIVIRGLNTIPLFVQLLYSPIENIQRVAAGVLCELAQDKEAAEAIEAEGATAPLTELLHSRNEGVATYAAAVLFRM
Text: We also probed the general effect of 2-SPs on protein stability by using differential scanning fluorimetry (DSF). […] Mutants of the 25 kDa DNA-binding domain of the tumor suppressor p53 are notorious for their reduced thermal stability and denaturation/aggregation propensity.[37] The 56 kDa armadillo domain (ARD) of β-catenin mediates canonical Wnt signaling and plays a central role in embryogenesis and tissue homeostasis.[38] FGE (37 kDa) is the only known activator of human sulfatases, and its stability is susceptible to modification of its cysteines.[39] […]
Human β-catenin armadillo domain. β-catenin sequence was amplified by PCR (KOD DNA polymerase, Merck Millipore) from plasmid templates and cloned into bacterial expression vectors by restriction - free cloning. All plasmids were verified by sequencing. For protein pro duction, bacterial expression vector pLipK-ARD (residues 150 – 662) was used. 6xHis-Lip-tagged recombinant proteins were purified from BL21(DE3) pRARE2 E. coli bacterial strains. Bacteria were grown in LB media supplemented with appropriate antibiotic to OD600 0.6, then dropped to a lower temperature (16 – 24 °C) and induced at OD600 0.8 by addition of 0.4 mM isopropyl β -D-1-thiogalactopyranoside (IPTG). Proteins were expressed overnight and bacteria were subsequently harvested by centrifugation, cell pelle ts shock-frozen in liquid nitrogen and stored at -80°C until use. Cell pellets were re -suspended in lysis buffer (25 mM Tris -HCl pH 8, 200 mM NaCl, 20 mM imidazole, 10 μg/mL DNAse, EDTA -free protease inhibitor cocktail) and lysed with an Emulsiflex C-3 (Avestin). Lysates were cleared by ultracentrifugation (140,000x rcf, 30 minutes, 4°C) and mixed with Ni-NTA agarose. Beads were washed multiple times with lysis buffer, and 6xHisLip - tagged protein was eluted with lysis buffer supplemented with 500 mM imidazo le. The protein was further purified by SEC on a HiPrep26/60 G200 (GE Healthcare) into the final buffer of 200 mM NaCl, 25 mM Tris pH 7.4, 0.06% NaN3, 1 mM DTT, and protein purity was assessed by SDS -PAGE. Pure protein fractions were concentrated using a 1 0 kDa MWCO Vivaspin 20 concentrator (Sartorius) to 17 – 28 mg/mL, then shock frozen as droplets in liquid nitrogen and stored at -80°C until use. […]

p53-Y220C DBD = target: T2, p53-Y220C DBD (Homo sapiens, UniProt P04637, M133L/N239Y/N268D/V203A/Y220C); experiment: Protein arylation by ESI mass spectrometry; type: binding
T2 construct: (residues 94-312); 6xHis/lipoyl domain/TEV protease cleavage site (N, cleaved yes); made in house; host or cells: E. coli C41
Experimental: In mass spectrometry experiments, we incubated 50 μM purified p53-Y220C DBD in KPi buffer at varying pH’s (6.0–8.0), temperatures (0 and 20 °C), and equivalents of 2-SPs (20–100). Representative 2-SPs were selected to span a broad reactivity range to determine whether trends observed in GSH in vitro assays translate to relative rates of modification of solvent exposed cysteines in folded proteins. […] The same could also be achieved with only 20 equiv of reagent by increasing the temperature to 20 °C, or raising the pH to 8.0. This is an important result because late-stage protein functionalization with bromo- and iodo-(hetero)aromatic motifs is challenging and inaccessible by metal-catalyzed arylation methodologies due to dehalogenation and/or off-target specificity. The introduction of an iodo-(hetero)aromatic motif on the protein surface facilitates drastically the crystal structure resolution with a sharp variation of density. […] Overall, we observed good correlation between GSH and protein experiments.
Figure 4 Biophysical and structural characterization of protein cysteine arylation by 2-SPs. […] Stoichiometry, reaction time/temperature, and pH are indicated in each case. X axis: m/z (Da). Y axis: normalized intensities as a percentage of the most intense peak. Middle: Structure of the modified Y220C mutant (green) superimposed onto the structure of the unmodified protein (gray, PDB entry 6SHZ)[40] showing the region around modified C182 (E) and C277 (F). Hydrogen bonds formed by the pyrimidine are highlighted as dashed yellow lines. 2Fo – Fc electron density maps are shown at a contour level of 1.3σ for segments of chain B including the modified residues C182 and C277. Bottom (F): Protein thermal stability (ΔTm, °C) of p53-Y220C, β-catenin ARD. and FGE, determined by DSF in the presence of 100 μM 2-SP derivatives. […]

Compound | % degradation ([1]; pH 7.0) | ΔTm at 100 µM (β-catenin ARD) | protein modification by ESI-MS (in words) (p53-Y220C DBD; 50 μM protein, all conditions tested, even after 4 h at 20 °C) | melting point | % degradation ([1]; pH 8.2) | hydrolysis in aqueous buffer (in words) [1] | protein arylation by ESI-MS (in words) (p53-Y220C DBD; 100 equiv, 0 °C, pH 7.2) | time to selective double arylation (p53-Y220C DBD; 100 equiv, 0 °C, pH 7.2)
Cc1cc(C)nc(S(C)(=O)=O)n1 [4a] | < 5% | -0.1 ± 0.1 °C | could not detect any protein modification | – | – | – | – | –
COc1ccnc(S(C)(=O)=O)n1 [4b] | – | -0.1 ± 0.1 °C | – | 60 °C | – | – | – | –
Cc1ccnc(S(C)(=O)=O)n1 [4c] | – | -0.1 ± 0.1 °C | – | – | 10% | – | – | –
CS(=O)(=O)c1nccc(C(=O)O)n1 [4d] | < 5% | -0.1 ± 0.1 °C | – | 115 to 118 °C | < 5% | – | – | –
CS(=O)(=O)c1nccc(-c2ccccc2)n1 [4e] | < 5% | -0.1 ± 0.1 °C | – | – | 50% | – | – | –
COc1cc(OC)nc(S(C)(=O)=O)n1 [4f, 4,6-dimethoxy-2-methylsulfonylpyrimidine] | – | -0.1 ± 0.1 °C | – | – | – | – | – | –
CS(=O)(=O)c1nccc(N)n1 [4g] | 5% | -0.1 ± 0.1 °C | – | 166 °C | – | – | – | –
CS(=O)(=O)c1ncc(Br)c(C(=O)O)n1 [4i] | – | -0.1 ± 0.1 °C | – | – | – | – | – | –
CS(=O)(=O)c1nccc(C(N)=O)n1 [4j] | – | -0.3 ± 0.3 °C | – | – | – | – | – | –
COC(=O)c1ccnc(S(C)(=O)=O)n1 [4k] | 77% | -0.1 ± 0.1 °C | – | 80 °C | 100% | – | – | –
CS(=O)(=O)c1nccc(C(F)(F)F)n1 [4l] | 17% | -1.7 ± 0.4 °C | – | 82 °C | 65% | partial, slow hydrolysis | – | –
CS(=O)(=O)c1ncc(-c2ccccc2)cn1 [4p] | 78% | -0.1 ± 0.1 °C | – | 180 °C | 78% | – | – | –
CS(=O)(=O)c1ncccn1 [4q, 2-methylsulfonylpyrimidine] | < 5% | -0.1 ± 0.1 °C | – | – | < 5% | – | – | –
CS(=O)(=O)c1ncc(Br)cn1 [4t] | < 5% | -0.7 ± 0.1 °C | – | – | < 5% | – | completely selective double arylation | 2.5 h
CS(=O)(=O)c1ncc(I)cn1 [4u] | < 5% | -0.1 ± 0.1 °C | – | 56 °C | 14% | – | completely selective double arylation | –
CS(=O)(=O)c1ncc(C(=O)O)cn1 [4v] | 18% | -1.3 ± 0.1 °C | – | 138 °C | – | – | – | –
CS(=O)(=O)c1ncc(C(F)(F)F)cn1 [4x] | 97% | -3.1 ± 0.6 °C | – | – | 100% | partial, slow hydrolysis | – | –
CC(C)(C)S(=O)(=O)c1ncccn1 [5a] | < 5% | -0.1 ± 0.1 °C | – | 58 °C | – | – | – | –
Nc1ccc(S(=O)(=O)c2ncccn2)cc1 [5b] | – | -0.1 ± 0.1 °C | – | 200 to 201 °C | – | – | – | –
CCCCS(=O)(=O)c1ncccn1 [5c] | – | -0.1 ± 0.1 °C | – | – | – | – | – | –
O=S(=O)(c1ccccc1)c1ncccn1 [5d] | 12% | -0.1 ± 0.1 °C | – | – | 10% | – | – | –
O=S(=O)(CC(F)(F)F)c1ncccn1 [5e] | 100% | -6.9 ± 1 °C | – | 91 to 92 °C | 100% | – | – | –
O=[N+]([O-])c1ccc(S(=O)(=O)c2ncccn2)cc1 [5f] | 100% | -0.1 ± 0.1 °C | – | 225 °C | 100% | – | – | –
O=S(=O)(NCc1ccccc1)c1ncccn1 [5g] | – | 0.3 ± 0.3 °C | – | – | < 5% | – | – | –
O=S(=O)(Oc1c(F)c(F)c(F)c(F)c1F)c1ncccn1 [5h] | 100% | -0.1 ± 0.1 °C | – | – | 100% | – | – | –
